Test results as given in patent US20240391902A1, “Crystalline Form of Compound” (Shenzhen Forward Pharmaceuticals Co., Limited, priority 2020, published 2024).
“Also recorded” adds a separate entry of the source.

Columns and labels:
[1] = Solid solubility test (2 h and 24 h); assay type: physicochemical; conditions: Test ES4: FaSSIF-V1 (pH 6.5)
Description: 5 samples were weighed for each amorphous salt solid (equivalent to 20 mg of free base), and 10 mL of the following solvents were respectively added: 0.1N HCl solution (pH 1.0), 50 mM phosphate buffer (pH 4.5), FeSSIF-V1 (pH 5.0), FaSSIF-V1 (pH 6.5) and SGF (pH 2.0), and stirred at 37° C. for 2 h. The suspension was then centrifuged at 37° C., the supernatant was measured for solubility by HPLC, and the solid fraction was measured for XRPD. The target solubility was at least 2 mg (based on free base)/mL.

[2] = Drug absorption test in male Han-Wister rats; assay type: in vivo
Description: Intravenous administration: Three healthy male Han-Wister rats having a body weight of 250-350 g were provided by Beijing Vital River Laboratory Animal Technology Co., Ltd. The above compound of Example 1 was administered intravenously at the doses (calculated based on free base) listed in Table 1 below, respectively. Before administration and 15 min, 0.5 h, 1.0 h, 2.0 h, 4.0 h, 8.0 h, 12 h, and 24 h after administration, jugular vein puncture was performed to take 0.05 mL of blood, plasma was separated and prepared, and the drug concentration in the plasma was measured by liquid chromatography-tandem mass spectrometry (LC-MS) to obtain a drug concentration-time curve.
Intragastric administration: Twelve healthy male Han-Wister rats having a body weight of 250-350 g were provided by Beijing Vital River Laboratory Animal Technology Co., Ltd. and randomly divided into 4 groups. The above compounds of Example 1, Example 2, Example 3 and Example 4 were administered intragastrically at the doses (calculated based on free base) listed in Table 2 below, respectively. Before administration and 15 min, 0.5 h, 1.0 h, 2.0 h, 4.0 h, 8.0 h, 12 h, and 24 h after administration, jugular vein puncture was performed to take 0.05 mL of blood, plasma was separated and prepared, and the drug concentration in the plasma was measured by liquid chromatography-tandem mass spectrometry (LC-MS) to obtain a drug concentration-time curve.

[3] = Solid storage stability test; assay type: physicochemical; conditions: for chemical and physical stability after storage: solid/25° C./60% RH/open/1 week and/or solid/60° C./closed container/1 week
Description: Each amorphous salt solid was weighed (two 2 mg samples were weighed for purity testing after solid storage stability study, and one 10 mg sample was weighed for XRPD testing after solid storage stability study) and placed in a glass vial. In a 25° C./60% RH solid storage stability test, the amorphous salt solid was placed in a 25° C./60% RH constant temperature and humidity chamber, and placed in the dark for 1 week (i.e. “solid/25° C./60% RH/open/1 week”), and in a 60° C. solid storage stability test, the amorphous salt solid was sealed in an oven at 60° C. and heated for 1 week in the dark (i.e. “solid/60° C./closed container/1 week”). Then the sample was taken out for purity testing, crystal form detection and appearance observation, respectively.

[4] = Solid solubility test (2 h and 24 h); assay type: physicochemical; conditions: for Solubility measured at 24 h: 37° C., based on free base
[5] = Chemical and physical stability of the salts at the end of the preparation; assay type: physicochemical
Excerpt: It is crucial for drug development whether the salts obtained as above have chemical and physical stability at the end of the preparation.

Dynamic solubility test = assay type: physicochemical; conditions: room temperature, feeding concentration 10 mg/mL, listed as compound of formula (I)
Description: Determination method: According to a feeding concentration of 10 mg/mL, about 50 mg of the sample were weighed and added to 5 mL of the corresponding medium, and the sample was dissolved by rotating at […] at room temperature.

[6] = tested on: EGFR activating mutation (exon 19 deletion activating mutation, L858R activating mutation, T790M drug resistance mutation and exon 20 insertion mutation); conditions: disclosed in CN105461695B; cited from earlier work
[7] = intragastric administration, doses 80, 100, 93.2, 81.1 mg/kg for Example 1, 2, 3, 4 (calculated based on free base)
[8] = Test BS1: solid/25° C./60% RH/open/1 week
[9] = Test BS2: solid/60° C./closed container/1 week

For `C=CC(=O)Nc1cc(Nc2ncnc(-c3cn(C)c4ccccc34)n2)c(OC)cc1N(C)CCN(C)C` [Example 4], the “pH measured at 2 h” value [1] was “(6.5)”, the “Solubility measured at 2 h” value ([1]; 37° C., based on free base) was over 2 mg/mL and the AUC0-t [2, 7] was 9.703 µg·h/mL. It also gave a Cmax [2, 7] of 1.376 µg/mL, a T1/2 [2, 7] of 6.17 h and an F ([2]; intragastric versus intravenous administration, doses 80, 100, 93.2, 81.1 mg/kg for Example 1, 2, 3, 4) of 26.8%. For the same compound, the Color [3, 8] was “no color change”, the “Morphology (XRPD crystallinity)” value [3, 8] was “amorphous (FIG. 93),” and the “Morphology (agglomeration, appearance)” value [3, 8] was “no agglomeration”. For the same compound, the Color [3, 9] was “no color change”, the “Morphology (XRPD crystallinity)” value [3, 9] was “amorphous (FIG. 93),” and the “Morphology (agglomeration, appearance)” value [3, 9] was “no agglomeration”. The “chemical and physical stability after storage” value ([3]; listed as 1 eq. mesylate salt) was “chemically and physically stable”, the “chemical and physical stability after storage” value ([3]; listed as amorphous 1 eq. mesylate salt) was “chemically and physically stable” and the “physical and chemical stability (in words)” value ([3]; solid/25° C./60% RH/open/1 week, listed as amorphous 1 eq. mesylate salt) was “good physical and chemical stability”. For the same compound, the “physical and chemical stability (in words)” value ([3]; solid/60° C./closed container/1 week, listed as amorphous 1 eq. mesylate salt) was “good physical and chemical stability”, the “pH measured at 24 h” value ([4]; Test ES3: FeSSIF-VI (pH 5.0)) was “(5.0)” and the “Solubility measured at 24 h” value ([4]; Test ES3: FeSSIF-VI (pH 5.0)) was over 2 mg/mL. For the same compound, the “pH measured at 24 h” value ([4]; Test ES4: FaSSIF-VI (pH 6.5)) was “(6.6)” and the “Solubility measured at 24 h” value ([4]; Test ES4: FaSSIF-VI (pH 6.5)) was over 2 mg/mL.

In the case of `C=CC(=O)Nc1cc(Nc2ncnc(-c3cn(C)c4ccccc34)n2)c(OC)cc1N(C)CCN(C)C` [Example 12], the “chemical and physical stability at the end of the preparation” value ([5]; listed as amorphous sulfate salt) is reported as “chemically stable; also recorded: physically unstable due to a certain hygroscopicity”.

With `C=CC(=O)Nc1cc(Nc2ncnc(-c3cn(C)c4ccccc34)n2)c(OC)cc1N(C)CCN(C)C` [Example 13] the “chemical and physical stability at the end of the preparation” value ([5]; listed as amorphous 2 eq. p-tosylate salt) was “chemically stable; also recorded: physically unstable due to caking and fusion to a glassy state upon short exposure to environmental conditions”.

In the case of `C=CC(=O)Nc1cc(Nc2ncnc(-c3cn(C)c4ccccc34)n2)c(OC)cc1N(C)CCN(C)C` [Example 14], the “chemical and physical stability at the end of the preparation” value ([5]; listed as amorphous sulfosalicylate salt (Sample No. Y11526-25-FD13-1,4-dioxane)) is reported as “chemically and physically stable”.

In the case of `C=CC(=O)Nc1cc(Nc2ncnc(-c3cn(C)c4ccccc34)n2)c(OC)cc1N(C)CCN(C)C` [Example 15], the “chemical and physical stability at the end of the preparation” value ([5]; listed as amorphous sulfosalicylate salt (Sample No. Y11526-25-FD12-1,4-dioxane)) is reported as “chemically and physically stable”.

In the case of `C=CC(=O)Nc1cc(Nc2ncnc(-c3cn(C)c4ccccc34)n2)c(OC)cc1N(C)CCN(C)C` [Example 21], the dynamic solubility (Dynamic solubility test; SGF, 0.5 h) is reported as under 1.0 mg/mL, the dynamic solubility (Dynamic solubility test; SGF, 1 h) is reported as under 1.0 mg/mL and the dynamic solubility (Dynamic solubility test; SGF, 2 h) is reported as under 1.0 mg/mL. It also gave a dynamic solubility (Dynamic solubility test; SGF, 4 h) of under 1.0 mg/mL, a dynamic solubility (Dynamic solubility test; SGF, 24 h) of under 1.0 mg/mL and a dynamic solubility (Dynamic solubility test; water, 0.5 h) of under 1.0 mg/mL. The dynamic solubility (Dynamic solubility test; water, 1 h) was under 1.0 mg/mL, the dynamic solubility (Dynamic solubility test; water, 2 h) was under 1.0 mg/mL and the dynamic solubility (Dynamic solubility test; water, 4 h) was under 1.0 mg/mL. For the same compound, the dynamic solubility (Dynamic solubility test; water, 24 h) was under 1.0 mg/mL and the “inhibitory activity against EGFR activating mutation compared with wild-type EGFR (WT EGFR)” value [6] was “significantly higher”.
